The subject of experiment [1] is V. harveyi (BB170). Briefly: V. harveyi BB170 growth (OD600 after 24 h). The format is cell-based, Vibrio harveyi. To be noted: V. harveyi BB170, OD600 after 24 h. How it is done:
The test strain V. harveyi BB170 was grown overnight in Luria Marine (LM)-medium ([25]). The culture was 1:500 diluted in AB-medium (0.3 M NaCl, 10 mM potassium phosphate, 1 mM L-arginine, […], 1% glycerol) the next day, and then challenged with various chemical compounds. After 5 h of shaking at 200 rpm at 30°C, the bioluminescence of BB170 was quantified on a GENios Pro plate reader (Tecan, Männedorf, Switzerland).
Figure 3. Bioactivity of hit candidates against Vibrio harveyi. Effect on bacterial growth. V. harveyi (BB170) was grown in the presence of individual compounds (A–H) for 5 h and the bioluminescence (green circles) was quantified. After a total of 24 h, bacterial growth (+) was evaluated by measuring the optical density (OD600). The gray translucent background in (C) represents the narrow range within which the compound reduces bioluminescence without affecting growth.

Experiment [2] deals with MRSA ATCC 43300. Description: AI-2 activity of MRSA ATCC 43300. The format is cell-based, Staphylococcus aureus. To be noted: MRSA ATCC 43300, 3 h, different 5-FU concentrations. As to the method: To confirm that the phenotype could be restored, 1 μM synthetic (S)-4,5-dihydroxy-2,3-pentanedione (DPD) (Biosynth Carbosynth, Staad, Switzerland) was used. After 3 h under static conditions at 37°C, the supernatant was analysed for AI-2 activity with V. harveyi (MM32).
Figure 4. Bioactivity of 5-FU against MRSA ATCC 43300. (A) Quorum sensing-associated AI-2 activity of MRSA 43300 grown for 3 h with different 5-FU concentrations. (B) Effect of different 5-FU concentrations on MRSA 43300 growth. (C) Interference with biofilm formation. (D) Effect on adherent MRSA 43300. Data points represent three biological replicates expressed as mean ± SD (**P < 0.01; ***P < 0.001; ****P < 0.0001).
Figure 5. Phenotype restoration with synthetic AI-2 supplementation. AI-2 activity of MRSA ATCC 43300 was evaluated with and without 1 μM DPD in the presence of different 5-FU concentrations. The dashed line indicates the baseline level of AI-2 of MRSA ATCC 43300 in the absence of 5-FU. Values represent 3 biological replicates expressed as mean ± SD (**P < 0.01; ****P < 0.0001).

Experiment [3] deals with MRSA ATCC 43300. Briefly: Murine tissue cage (foreign-body) infection model, prophylaxis. The format is in vivo, Staphylococcus aureus. The settings on record: C57BL/6 mice, prophylactic treatment. How it is done:
To evaluate the prophylactic efficacy of 5-FU against MRSA infection, we used our murine model of foreign-body infection, which closely mimics human implant-associated infections. This model of foreign-body infection ([26],[27]) was established with the approval of the Kantonale Veterinaeramt Basel-Stadt, Switzerland (permit no. 1710). Experiments were conducted according to the regulations of Swiss veterinary law and performed in the animal house of the Department of Biomedicine, University Hospital Basel, Switzerland. Healthy wild-type female C57BL/6 mice at 13 weeks of age (JanvierLabs, France) kept under specific pathogen-free conditions (biosafety level 2) were anesthetized, followed by the subcutaneous implantation of sterile cylindrical Teflon tissue cages (8.5 × 1 × 30 mm; volume: 1.9 ml) with 130 regularly spaced holes (Angst + Pfister AG, Zurich, Switzerland). They were housed in a 12 hr light/dark cycle (light from 7 am to 7 pm) in a temperature-controlled room (24°C) with free access to regular mice chow and water. Mice were randomly assigned to experimental groups, which were not involved in previous procedures. The mice were randomized into groups, which were treated as follows: saline (untreated growth control; n = 7), saline with 5.2844 mg/kg DPD (n = 4), 50 mg/kg daptomycin (DAP) (Novartis, Basel, Switzerland) (n = 11), 10 mg/kg 5-FU with and without 50 mg/kg DAP (each n = 8), 40 mg/kg 5-FU with or without 50 mg/kg DAP (n = 16 and n = 13, respectively), 40 mg/kg 5-FU with 1 μM DPD (n = 6), or 40 mg/kg 5-FU with 50 mg/kg DAP and 5.2844 mg/kg DPD (n = 8). DAP was given intraperitoneally immediately before implantation, and 5-FU and DPD was given immediately after implantation directly into the lumen of the cage. Afterwards, the cages were infected with 965 CFU of MRSA 43300. At 2 days post-infection, tissue cage fluid was collected, and the planktonic bacterial load was evaluated by plating on blood agar plates. In additional, mice were sacrificed and the tissue cages were explanted under aseptic conditions. The explanted tissue cages were washed twice with phosphate-buffered saline followed by 30 s vortexing, sonication for 3 min at 130 W and another 30 s vortexing to release adherent bacteria from the biofilm. Quantification of adherent bacteria was performed by plating appropriated dilutions on blood agar plates. To determine the prevention rate, the presence of any re-growth of MRSA was examined by further incubation of the cage in tryptic soy broth (TSB) for 48 h at 37°C. MRSA re-growth represents therapy failure, and the prevention rate was defined as the percentage of cages without growth in each treatment group.
Figure 6. Prophylactic effect of 5-FU against MRSA ATCC 43300 in a murine tissue cage infection model. Read-outs were obtained two days after infection with 965 CFU/cage and treatment with saline, saline with 1 μM AI-2, 50 mg/kg daptomycin (DAP), 10 mg/kg 5-FU with or without 50 mg/kg DAP, 40 mg/kg 5-FU with or without 50 mg/kg DAP or 40 mg/kg 5-FU with 50 mg/kg DAP and 5.2844 mg/kg DPD, as indicated below the panels. (A) Effect on planktonic MRSA 43300 two days post-infection. (B) Effect on adherent MRSA after explantation and sonication. (C) Prevention rate. Values in (A) and (B) are median ± IQR and those in (C) are % ([…]; **P < 0.001; ****P < 0.0001; ns, not significant). TEXT PRINTED IN THE PICTURE: (C) DAP: prevention rate (%): 18 | (C) DAP + 5-FU (10): prevention rate (%): 75 | (C) DAP + 5-FU (40): prevention rate (%): 94 | (C) DAP + 5-FU (40) + DPD: prevention rate (%): 12.5 DOUBTS OF THE COPYIST ABOUT THIS PICTURE: Panel C, DAP, prevention rate: 18 or 16 (small print) / Panel C, DAP + 5-FU (10), prevention rate: 75 or 76 (small print) / Panel C: which treatment belongs to each bar was read from the small +/- grid under the plot, so the column alignment is not fully certain

Each structure is given as a SMILES string.

In the case of `O=c1[nH]cc(F)c(=O)[nH]1` [5-Fluorouracil], the “Effect on V. harveyi growth” value in experiment [1] is “without decreasing the growth”. Moreover, in experiment [2], the “AI-2 production and quorum-sensing capacity of MRSA” value is given as “dose-dependently reduced”. The “Effect on biofilm / adherent MRSA” value in experiment [3] (explanted cages 2 days post-infection) is “neither 5-FU nor DAP alone was sufficient to contain the infection”. Also, the “Effect on planktonic MRSA infection” value in experiment [3] (tissue cage fluid 2 days post-infection) is recorded as “failed to clear planktonic MRSA infections”.

(Values after PMC8287944, “5-Fluorouracil blocks quorum-sensing of biofilm-embedded methicillin-resistant Staphylococcus aureus in mice” (Nucleic Acids Research, 2021).)
